From ChEMBL document CHEMBL2057202, “Investigation of substituted 6-aminohexanoates as skin penetration enhancers” (Bioorg Med Chem, 2012)

Legend:
[1] = Lipophilicity, log K of the compound by RP-HPLC analysis; assay type: physicochemical
SK-N-MC = test: Antiproliferative activity against human SK-N-MC cells after 72 hrs by MTT assay; assay type: cell-based
[2] = Potentiation of theophylline transdermal permeation in pig ear skin assessed as enhancement ratio at 20 mg after 24 hrs by Franz diffusion cell method; assay type: ADME, Sus scrofa

| SMILES | log K [1] | IC50 (SK-N-MC) [µM] | Ratio [2] |
| --- | --- | --- | --- |
| CCCCCCCCOC(=O)C(CCCCN1C(=O)CCC1=O)N1CCCCCC1=O (stereo unspecified) | 0.2462 | > 6.25 | 2.24 |
| CCCCCCCCCCCOC(=O)CCCCCN1C(=O)CCC1=O | 0.8368 | > 6.25 | 3.51 |
| CCCCCCCCCCOC(=O)C(CCCCN1C(=O)CCC1=O)N1CCCCCC1=O (stereo unspecified) | 0.6158 | > 6.25 |  |
| CCCCCCCCOC(=O)CCCCCN1C(=O)CCC1=O | 0.3239 | > 6.25 | 2.55 |
| CCCCCCCCCOC(=O)CCCCCN1C(=O)CCC1=O | 0.4901 | > 6.25 | 3.14 |
| CCCCCCOC(=O)CCCCCN1C(=O)CCC1=O | -0.0201 | > 6.25 | 2.71 |
| CCCCCCCCCOC(=O)C(CCCCN1C(=O)CCC1=O)N1CCCCCC1=O (stereo unspecified) | 0.4095 | > 6.25 | 1.87 |
| CCCCCCCOC(=O)C(CCCCN1C(=O)CCC1=O)N1CCCCCC1=O (stereo unspecified) | 0.0658 | > 6.25 |  |
| CCCCCCCCCCCOC(=O)C(CCCCN1C(=O)CCC1=O)N1CCCCCC1=O (stereo unspecified) | 0.7462 | > 6.25 | 1.81 |
| CCCCCCOC(=O)C(CCCCN1C(=O)CCC1=O)N1CCCCCC1=O (stereo unspecified) | -0.0764 | > 6.25 | 1.93 |
| CCCCCCCCCCOC(=O)CCCCCN1C(=O)CCC1=O | 0.6548 | > 6.25 | 3.54 |
| CCCCCCCC/C=C\CCCCCCCC(=O)O [OLEIC ACID] |  |  | 1.13 |
| CCCCCCCCCCCCOC(=O)C(CCCCN1C(=O)CCC1=O)N1CCCCCC1=O (stereo unspecified) | 0.9081 | > 6.25 | 2.48 |
| CCCCCCCOC(=O)CCCCCN1C(=O)CCC1=O | 0.15 | > 6.25 | 2.64 |
| CCCCCCCCCCCCOC(=O)CCCCCN1C(=O)CCC1=O | 1.0091 | > 6.25 | 2.93 |
